Values joined by “and” are separate entries in the source; they are usually repeats but may differ in a detail not shown here. Identical values can stand only once. Like-named read-outs stand apart in the source and are kept apart here.
Legend:
[1] = tested on: mice; test: Hot plate assay, withdrawal reflex latency (WRL); type: in vivo; settings: for Hot plate Time: per animal
[2] = Pharmacokinetics, blood samples (Example 17); settings: for concentration at 0.5 h: mouse, blood, ip, Component in the blood, label = analyte
Description: The pharmacokinetics of 9-CD3-(8-D2)-THC compared to natural THC was evaluated using both intraperitoneal i.p. injection and an oral gavage administration for each material. The mice were divided into four groups containing 6 mice (24 mice total). For each group of mice, a blood sample was withdrawn at baseline (t=0), and half-hour intervals (t=0.5, 2 and 5 h) after administration of the drug. Three mice, half of each group, were euthanized with CO2 after 5 h and their organs (brain and liver) were collected. From the second half of each group, another blood sample was withdrawn 24 h after administration, and then these animals were euthanized and the brain and liver were collected for analysis.

[3] = Pharmacokinetics, liver samples (Example 17); type: in vivo, mice; settings: for concentration at 24 h / concentration at 5 h: mouse, liver; for concentration at 24 h: ip; for concentration at 5 h: po
[4] = Persistence over time, blood samples (Example 18); type: in vivo, mice
Description: (§1) Blood samples from each mouse were collected at each time point for the pharmacokinetics tests. For 6 h after administrating of all tested drugs, and after testing their WRL on the hot plate, half the mice (n=3) of each group were sacrificed, and the liver and brain of each animal were taken for pharmacokinetics tests. From the remaining mice, blood samples were acquired at 12 h after administration for pharmacokinetics tests. At 24 h after drug administration, and after checking the WRL again, second half of each group of mice were sacrificed, and the liver and brain of each animal were taken for pharmacokinetics tests.

[5] = Persistence over time, brain samples postmortem (Example 18); type: in vivo, mice
Description: as §1
(§2) All the results of the brain and liver samples, which were taken postmortem 6 h or 24 h after administration (n=3) are summarized in Tables 12-13.

[6] = Persistence over time, liver samples postmortem (Example 18); type: in vivo, mice; settings: mouse, liver, oral, read-out: Average results for 3 mice (Table 13, liver); for concentration at 6 h: died at 6 h; for concentration at 24 h: died at 24 h, number in brackets = mice with a value
Description: as §1, §2

[7] = Body temperature by rectal thermometer (hypothermia)
[8] = 8 mg/Kg oral, t = 6 h, listed as THC-d5

SMILES: [2H]C([2H])([2H])C1=C[C@H]2c3c(O)cc(CCCCC)cc3OC(C)(C)[C@@H]2CC1([2H])[2H] [9-CD3-(8-D2)-THC]
- Hot plate Avg. 6 mice ([1]; 2 mg/Kg oral, t = 0.5 h): 9.52 s
- Hot plate Time ([1]; 2 mg/Kg oral, t = 0.5 h, listed as THC-d5): 9.4 s and 9.3 s and 8.9 s and 10.9 s and 12.0 s and 6.6 s
- Hot plate Avg. 6 mice ([1]; 2 mg/Kg oral, t = 3 h): 10.97 s
- Hot plate Time ([1]; 2 mg/Kg oral, t = 3 h, listed as THC-d5): 7.2 s and 12.1 s and 8.5 s and 19.3 s and 13.1 s and 5.6 s
- Hot plate Avg. 6 mice ([1]; 2 mg/Kg oral, t = 6 h): 10.07 s
- Hot plate Time ([1]; 2 mg/Kg oral, t = 6 h, listed as THC-d5): 9.3 s and 14.5 s and 4.5 s and 15.8 s and 8.9 s and 7.4 s
- Hot plate Avg. 3 mice ([1]; 2 mg/Kg oral, t = 24 h): 8.3 s
- Hot plate Time ([1]; 2 mg/Kg oral, t = 24 h, listed as THC-d5): 7.9 s and 9.5 s and 7.5 s
- increase in the WRL compared to baseline ([1]; 2 mg/kg, 0.5 h): 3%
- change in average WRL compared to baseline ([1]; 2 mg/kg, 3 h): +19%
- change in average WRL compared to baseline ([1]; 2 mg/kg, 6 h): +9%
- Hot plate Avg. 6 mice ([1]; 4 mg/Kg oral, t = 0.5 h): 14.03 s
- Hot plate Time ([1]; 4 mg/Kg oral, t = 0.5 h, listed as THC-d5): 19.2 s and 10.3 s and 13.0 s and 9.5 s and 15.8 s and 16.4 s
- Hot plate Avg. 6 mice ([1]; 4 mg/Kg oral, t = 3 h): 13.77 s
- Hot plate Time ([1]; 4 mg/Kg oral, t = 3 h, listed as THC-d5): 17.5 s and 11.8 s and 12.1 s and 9.2 s and 12.5 s and 19.5 s
- Hot plate Avg. 6 mice ([1]; 4 mg/Kg oral, t = 6 h): 15.38 s
- Hot plate Time ([1]; 4 mg/Kg oral, t = 6 h, listed as THC-d5): 8.7 s and 19.9 s and 12.1 s and 8.3 s and 22.5 s and 20.8 s
- Hot plate Avg. 3 mice ([1]; 4 mg/Kg oral, t = 24 h): 14.27 s
- Hot plate Time ([1]; 4 mg/Kg oral, t = 24 h, listed as THC-d5): 5.2 s and 21.5 s and 16.1 s
- increase in the WRL compared to baseline ([1]; 4 mg/kg, 0.5 h): 68%
- change in average WRL compared to baseline ([1]; 4 mg/kg, 3 h): +65%
- change in average WRL compared to baseline ([1]; 4 mg/kg, 6 h): +85%
- Hot plate Avg. 6 mice ([1]; 8 mg/Kg oral, t = 0.5 h): 15.42 s
- Hot plate Time ([1]; 8 mg/Kg oral, t = 0.5 h, cut-off 30 s, listed as THC-d5): 19.9 s and 24.5 s and 11.1 s and 17.5 s and 10.1 s and 9.4 s
- Hot plate Avg. 6 mice ([1]; 8 mg/Kg oral, t = 3 h): 22.1 s
- Hot plate Time ([1]; 8 mg/Kg oral, t = 3 h, cut-off 30 s, listed as THC-d5): 30.0 sec. (3×) and 6.0 sec. and 26.2 sec. and 10.4 sec.
- Hot plate Avg. 6 mice ([1]; 8 mg/Kg oral, t = 3 h, listed as THC-d5): 22.10 s
- Hot plate Avg. 6 mice ([1]; 8 mg/Kg oral, t = 6 h): 8.4 s
- Hot plate Time [1, 8]: 6.4 s and 9.8 s and 11.5 s and 7.1 s and 13.4 s and 2.3 s
- Hot plate Avg. 6 mice [1, 8]: 8.42 s
- Hot plate Avg. 3 mice ([1]; 8 mg/Kg oral, t = 24 h): 20.8 s
- animal outcome printed in the hot plate Time column ([1]; 8 mg/Kg oral, t = 24 h, animal 20): Died
- Hot plate Time ([1]; 8 mg/Kg oral, t = 24 h, cut-off 30 s, listed as THC-d5): 30.0 s and 11.2 s
- Hot plate Avg. 3 mice ([1]; 8 mg/Kg oral, t = 24 h, listed as THC-d5): 20.6 s
- analgesic effect compared to natural THC and morphine ([1]; 8 mg/kg oral, up to 24 h after administration): stronger and longer lasting analgesic effect
- average increase in WRL compared to baseline (t=0) ([1]; 8 mg/kg, 0.5 h): 67.6%
- change in average WRL compared to t=0 at baseline ([1]; 8 mg/kg, 3 h): 140%
- average blood concentration, times higher than THC ([2]; 0.5 h after i.p. administration): 1.87 times
- concentration at 0.5 h ([2]; Average, 0.5 h after i.p. injection of THC or THC-d5, n=6 (THC-d5 n=5)): 110 ng/mL
- concentration at 0.5 h ([2]; mouse 1, 0.5 h after i.p. injection of THC or THC-d5): 183 ng/mL
- concentration at 0.5 h ([2]; mouse 2, 0.5 h after i.p. injection of THC or THC-d5): 93.8 ng/mL
- concentration at 0.5 h ([2]; mouse 4, 0.5 h after i.p. injection of THC or THC-d5): 141 ng/mL
- concentration at 0.5 h ([2]; mouse 5, 0.5 h after i.p. injection of THC or THC-d5): 74.1 ng/mL
- concentration at 0.5 h ([2]; mouse 6, 0.5 h after i.p. injection of THC or THC-d5): 58.9 ng/mL
- average liver concentration, times more than THC ([3]; 5 h after oral gavage administration): 1.59 times
- average liver concentration, times more than THC ([3]; 24 h after i.p. administration): 1.40 times
- concentration at 24 h ([3]; 24 h after i.p. administration, n=3, read-out: average liver concentration): 10.7 ng/g
- concentration at 24 h ([3]; 24 h after i.p. injection of THC or THC-d5, label = analyte, n=3, read-out: Component in the liver, Average): 10.7 ng/mL
- concentration at 24 h ([3]; 24 h after i.p. injection of THC or THC-d5, label = analyte, read-out: Component in the liver, mouse 1): 12.4 ng/mL
- concentration at 24 h ([3]; 24 h after i.p. injection of THC or THC-d5, label = analyte, read-out: Component in the liver, mouse 2): 15 ng/mL
- concentration at 24 h ([3]; 24 h after i.p. injection of THC or THC-d5, label = analyte, read-out: Component in the liver, mouse 3): 4.64 ng/mL
- concentration at 5 h ([3]; 5 h after oral gavage administration of THC or THC-d5, label = analyte, n=3, read-out: Component in the liver, Average): 5.99 ng/mL
- concentration at 5 h ([3]; 5 h after oral gavage administration of THC or THC-d5, label = analyte, read-out: Component in the liver, mouse 1): 5.57 ng/mL
- concentration at 5 h ([3]; 5 h after oral gavage administration of THC or THC-d5, label = analyte, read-out: Component in the liver, mouse 2): 6.28 ng/mL
- concentration at 5 h ([3]; 5 h after oral gavage administration of THC or THC-d5, label = analyte, read-out: Component in the liver, mouse 3): 6.13 ng/mL
- concentration at 5 h ([3]; 5 h after oral gavage administration, n=3, read-out: average liver concentration): 5.99 ng/g
- Average results, blood samples ([4]; 4 mg/kg administration, Time 3 h, label = analyte): 1.44 (4/4) ng/mL
- Average results, blood samples ([4]; 8 mg/kg administration, Time 12 h (3 mice), label = analyte): 0.15 (1/1) ng/mL
- metabolic stability compared to THC ([4]; conclusion from mouse blood, brain and liver samples): better metabolic stability than THC
- concentration at 0.5 h ([4]; mouse, blood, oral, 4 mg/kg administration of THC or THC-d5, Time 0.5 h, label = analyte): 10.4 ng/mL
- concentration at 0.5 h ([4]; mouse, blood, oral, 8 mg/kg administration of THC or THC-d5, Time 0.5 h, label = analyte): 22.5 ng/mL
- concentration at 3 h ([4]; mouse, blood, oral, 8 mg/kg administration, Time 3 h, label = analyte): 7.27 ng/mL
- concentration at 6 h ([4]; mouse, blood, oral, 8 mg/kg administration, Time 6 h, label = analyte): 1.81 ng/mL
- presence in the brain ([5]; 24 h after administration, highest concentration of 8 mg/kg): evidence for the synthetic material in the brain
- concentration at 6 h ([5]; mouse, brain, oral, 8 mg/kg administered, died at 6 h, number in brackets = mice with a value, read-out: Average results for 3 mice - brain samples): 48 ng/g
- concentration at 6 h ([6]; 2 mg/kg administered): 3.31 ng/g
- concentration at 24 h ([6]; 2 mg/kg administered): 0.75 ng/g
- concentration at 6 h ([6]; 4 mg/kg administered): 16.1 ng/g
- concentration at 6 h ([6]; 8 mg/kg administered): 57.8 ng/g
- concentration at 24 h ([6]; 8 mg/kg administered): 1.64 ng/g
- time of strongest effect on body temperature after drug administration ([7]; high concentration of 8 mg/kg oral): 3 h
- hypothermia effect (body temperature) ([7]; medium concentration of 4 mg/kg oral): very clear hypothermia effect
- Body temperature, Avg. change compared to t = 0, at t = 3 h ([7]; mice, avg. of 6 mice, 8 mg/kg (groups C+D), t = 3 h after administration): −2.6 °C
- Animal status in the Temp. column at t = 24 h ([7]; mice, group D, 8 mg/kg, single animal, t = 24 h): Died

— US20230331690A1, “THC DERIVATIVES, ORAL DOSAGE FORMS COMPRISING SAME, USES THEREOF FOR TREATING DISEASES AND DISORDERS AND SYNTHESIS THEREOF” (BAR-ILAN UNIVERSITY, priority 2020, published 2023)
